# Key:
# [1] = target: Human norepinephrine transporter (NET) (Homo sapiens, UniProt P23975); assay: Binding assay to human norepinephrine transporter (NET), [3H]-Nisoxetin; settings: human NET enriched membranes, 5 nM [3H]-Nisoxetin; Ki as class symbol
# Method: Binding Assay to Human Norepinephrine Transporter (NET).
# Human norepinephrine transporter (NET) enriched membranes (5 μg) were incubated with 5 nM of radiolabeled [3H]-Nisoxetin in assay buffer containing 50 mM Tris-HCl, 120 mM NaCl, 5 mM KCl, pH 7.4.
# NSB (non specific binding) was measured by adding 10 μM of desipramine. The binding of the test compound was measured at five different concentrations.. After 60 min incubation at 4° C., binding reaction was terminated by filtering through Multiscreen GF/C (Millipore) presoaked in 0.5% polyethyleneimine in Vacuum Manifold Station, followed by 3 washes with ice-cold filtration buffer containing 50 mM Tris-HCl, 0.9% NaCl, pH 7.4.
# Filter plates were dried at 60° C. for 1 hour and 30 μl of scintillation cocktail were added to each well before radioactivity reading.
# [2] = target: Human α2δ-1 subunit of Cav2.2 calcium channel (Homo sapiens, UniProt P54289); assay: Human α2δ-1 subunit of Cav2.2 calcium channel assay, [3H]-Gabapentin binding; settings: human α2δ-1 enriched membranes, 15 nM [3H]-Gabapentin; Ki as class symbol
# Human α2δ-1 subunit of Cav2.2 calcium channel, sequence (P54289 25-1103): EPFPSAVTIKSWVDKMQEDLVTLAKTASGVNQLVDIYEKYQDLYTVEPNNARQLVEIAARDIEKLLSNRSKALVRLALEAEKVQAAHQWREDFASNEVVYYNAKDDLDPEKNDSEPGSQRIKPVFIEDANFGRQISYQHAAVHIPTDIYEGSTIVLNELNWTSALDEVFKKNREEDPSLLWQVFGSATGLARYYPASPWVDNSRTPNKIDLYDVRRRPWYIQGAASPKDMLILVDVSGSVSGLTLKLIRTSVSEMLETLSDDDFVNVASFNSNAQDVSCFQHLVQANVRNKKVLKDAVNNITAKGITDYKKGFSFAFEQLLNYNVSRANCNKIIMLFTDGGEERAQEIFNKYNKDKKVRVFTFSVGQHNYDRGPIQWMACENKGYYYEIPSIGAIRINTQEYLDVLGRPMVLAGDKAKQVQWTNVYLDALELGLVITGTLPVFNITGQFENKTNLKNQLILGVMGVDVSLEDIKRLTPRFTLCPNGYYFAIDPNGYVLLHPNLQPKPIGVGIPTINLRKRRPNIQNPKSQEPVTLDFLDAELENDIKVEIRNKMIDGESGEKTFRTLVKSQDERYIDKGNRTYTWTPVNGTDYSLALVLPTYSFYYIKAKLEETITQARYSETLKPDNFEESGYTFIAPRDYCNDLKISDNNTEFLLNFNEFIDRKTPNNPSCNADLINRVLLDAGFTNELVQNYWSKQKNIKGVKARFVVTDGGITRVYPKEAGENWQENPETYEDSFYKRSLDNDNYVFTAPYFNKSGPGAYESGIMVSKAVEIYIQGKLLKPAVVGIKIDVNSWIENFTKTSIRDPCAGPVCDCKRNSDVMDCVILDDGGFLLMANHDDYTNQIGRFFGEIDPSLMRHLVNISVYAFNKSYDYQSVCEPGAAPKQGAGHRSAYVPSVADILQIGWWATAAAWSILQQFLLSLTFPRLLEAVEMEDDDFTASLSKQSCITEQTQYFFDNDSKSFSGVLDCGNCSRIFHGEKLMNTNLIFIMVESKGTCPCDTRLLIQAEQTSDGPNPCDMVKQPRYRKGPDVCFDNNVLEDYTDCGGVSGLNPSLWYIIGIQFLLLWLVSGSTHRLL
# Method: Human α2δ-1 Subunit of Cav2.2 Calcium Channel Assay
# Human α2δ-1 enriched membranes (2.5 μg) were incubated with 15 nM of radiolabeled [3H]-Gabapentin in assay buffer containing Hepes-KOH 10 mM, pH 7.4. NSB (non specific binding) was measured by adding 10 μM pregabalin. The binding of the test compound was measured at five different concentrations. After 60 min incubation at 27° C., binding reaction was terminated by filtering through Multiscreen GF/C (Millipore) presoaked in 0.5% polyethyleneimine in Vacuum Manifold Station, followed by 3 washes with ice-cold filtration buffer containing 50 mM Tris-HCl, pH 7.4. Filter plates were dried at 60° C. for 1 hour and 30 μl of scintillation cocktail were added to each well before radioactivity reading. Readings were performed in a Trilux 1450 Microbeta radioactive counter (Perkin Elmer).
# Human norepinephrine transporter (NET), sequence (P23975 whole entry): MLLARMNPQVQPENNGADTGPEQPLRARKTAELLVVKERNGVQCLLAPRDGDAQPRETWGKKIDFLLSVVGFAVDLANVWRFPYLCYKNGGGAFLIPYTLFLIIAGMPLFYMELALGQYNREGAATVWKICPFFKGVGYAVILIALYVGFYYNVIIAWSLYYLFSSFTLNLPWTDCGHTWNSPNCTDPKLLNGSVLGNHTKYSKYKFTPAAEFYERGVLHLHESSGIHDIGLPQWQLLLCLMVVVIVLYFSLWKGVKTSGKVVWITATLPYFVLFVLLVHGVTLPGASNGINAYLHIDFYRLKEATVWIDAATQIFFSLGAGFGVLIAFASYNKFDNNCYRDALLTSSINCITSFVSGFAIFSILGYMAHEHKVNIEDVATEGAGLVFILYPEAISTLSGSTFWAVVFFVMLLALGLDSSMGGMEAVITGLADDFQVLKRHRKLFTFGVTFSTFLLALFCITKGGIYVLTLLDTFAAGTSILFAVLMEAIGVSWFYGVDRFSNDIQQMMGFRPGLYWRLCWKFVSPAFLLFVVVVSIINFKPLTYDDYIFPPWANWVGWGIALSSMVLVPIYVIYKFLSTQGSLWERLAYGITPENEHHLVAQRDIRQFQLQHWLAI
Ki [1],Ki [2],Structure (SMILES)
> 1000 nM,100 to 500 nM,"CCOc1ccc(-n2nc3c(NCCc4ccccn4)nnc(C)c3c2C)c(F)c1 [Example 15, 2-(4-ethoxy-2-fluorophenyl)-3,4-dimethyl-N-(2-(pyridin-2-yl)ethyl)-2H-pyrazolo[3,4-d]pyridazin-7-amine]"
> 1000 nM,100 to 500 nM,"CCOc1ccc(-n2nc3c(N(C)Cc4cnccn4)nnc(C)c3c2C)c(F)c1 [Example 35, 2-(4-ethoxy-2-fluorophenyl)-N,3,4-trimethyl-N-(pyrazin-2-ylmethyl)-2H-pyrazolo[3,4-d]pyridazin-7-amine]"
500 to 1000 nM,100 to 500 nM,"CCOc1ccc(-n2nc3c(NCc4ccccc4)nnc(C)c3c2C)c(F)c1 [Example 13, N-benzyl-2-(4-ethoxy-2-fluorophenyl)-3,4-dimethyl-2H-pyrazolo[3,4-d]pyridazin-7-amine]"
> 1000 nM,100 to 500 nM,"CCOc1ccc(-n2nc3c(N(C)Cc4cc(OC)ccn4)nnc(C)c3c2C)c(F)c1 [Example 31, 2-(4-ethoxy-2-fluorophenyl)-N-((4-methoxypyridin-2-yl)methyl)-N,3,4-trimethyl-2H-pyrazolo[3,4-d]pyridazin-7-amine]"
> 1000 nM,≥ 5000 nM,"CCOc1ccc(-n2nc3c(N(CCO)Cc4ccncc4)nnc(C)c3c2C)c(F)c1 [Example 53, 2-((2-(4-Ethoxy-2-fluorophenyl)-3,4-dimethyl-2H-pyrazolo[3,4-d]pyridazin-7-yl)(pyridin-4-ylmethyl)amino)ethanol]"
> 1000 nM,100 to 500 nM,"CCOc1ccc(-n2nc3c(N(C)Cc4cnc[nH]4)nnc(C)c3c2C)c(F)c1 [Example 24, N-((1H-imidazol-5-yl)methyl)-2-(4-ethoxy-2-fluorophenyl)-N,3,4-trimethyl-2H-pyrazolo[3,4-d]pyridazin-7-amine]"
100 to 500 nM,100 to 500 nM,"CCOc1ccc(-n2nc3c(N(C)CCc4ccccc4)nnc(C)c3c2C)c(F)c1 [Example 3, 2-(4-ethoxy-2-fluorophenyl)-N,3,4-trimethyl-N-phenethyl-2H-pyrazolo[3,4-d]pyridazin-7-amine]"
500 to 1000 nM,100 to 500 nM,"CCOc1ccc(-n2nc3c(N(C)Cc4cccc(OC)n4)nnc(C)c3c2C)c(F)c1 [Example 30, 2-(4-ethoxy-2-fluorophenyl)-N-((6-methoxypyridin-2-yl)methyl)-N,3,4-trimethyl-2H-pyrazolo[3,4-d]pyridazin-7-amine]"
> 1000 nM,≥ 5000 nM,"Cc1nnc(N(C)Cc2ccccn2)c2nn(-c3ccc(O)cc3)c(C)c12 [Example 47, 4-(3,4-dimethyl-7-(methyl(pyridin-2-ylmethyl)amino)-2H-pyrazolo[3,4-d]pyridazin-2-yl)phenol]"
> 1000 nM,100 to 500 nM,"CCOc1ccc(-n2nc3c(NCc4cc(C)ccn4)nnc(C)c3c2C)c(F)c1 [Example 22, 2-(4-ethoxy-2-fluorophenyl)-3,4-dimethyl-N-((4-methylpyridin-2-yl)methyl)-2H-pyrazolo[3,4-d]pyridazin-7-amine]"
> 1000 nM,100 to 500 nM,"CCOc1ccc(-n2nc3c(NCC(O)Cc4ccccc4)nnc(C)c3c2C)c(F)c1 (centres unmarked) [Example 19, 1-((2-(4-ethoxy-2-fluorophenyl)-3,4-dimethyl-2H-pyrazolo[3,4-d]pyridazin-7-yl)amino)-3-phenylpropan-2-ol]"
> 1000 nM,100 to 500 nM,"CCOc1ccc(-n2nc3c(N(C)Cc4ccn[nH]4)nnc(C)c3c2C)c(F)c1 [Example 28, N-((1H-pyrazol-5-yl)methyl)-2-(4-ethoxy-2-fluorophenyl)-N,3,4-trimethyl-2H-pyrazolo[3,4-d]pyridazin-7-amine]"
100 to 500 nM,500 to 5000 nM,"CCOc1ccc(-n2nc3c(N(C)Cc4ccccc4CNC)nnc(C)c3c2C)c(F)c1 [Example 43, 2-(4-ethoxy-2-fluorophenyl)-N,3,4-trimethyl-N-(2-((methylamino)methyl)benzyl)-2H-pyrazolo[3,4-d]pyridazin-7-amine]"

# — patent US20200199127A1, “(HETERO)ARYLALKYLAMINO-PYRAZOLOPYRIDAZINE DERIVATIVES HAVING MULTIMODAL ACTIVITY AGAINST PAIN” (priority 2017, published 2020)
